# From patent publication EP3227262B1, “SULFIDE ALKYL AND PYRIDYL REVERSE SULFONAMIDE COMPOUNDS FOR HBV TREATMENT” (Novira Therapeutics Inc., priority 2014, dated 2016)
# What was measured:
# HBV [1] = assay: Inhibition of HBV replication dot-blot assay in HBV-producing hepatoma cell line; assay type: cell-based; conditions: Hepatitis B virus, 144 h; activity in Dot-Blot assay; HepG2-2.2.15 cells; reduction in HBV DNA levels, six days
# Outline: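 HepG2-2.2.15 confluent monolayers were exposed to a compound dilution series for six days, with medium and compound renewed at day 3. HBV DNA in supernatant/lysate was quantified by dot-blot hybridization, and EC50 was derived from dose-response reduction in HBV DNA.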
# HBV [2] = assay: HBV replication inhibition assay (encapsidated HBV DNA in supernatant, bDNA QuantiGene); assay type: cell-based; conditions: Hepatitis B virus, 144 h, HepG2.2.15 cells, supernatant at day 6, read-out: Extra HBV DNA
Compound,EC50 (HBV [1]),EC50 (HBV [2])
"O=C(Nc1ccc(F)c(Cl)c1)c1ccc(F)c(SCC2(CCO)CC2)c1 [Compound 32, N-(3-Chloro-4-fluorophenyl)-4-fluoro-3-(((1-(2-hydroxyethyl)cyclopropyl)methyl)thio)benzamide]",< 10000 nM,410 nM
"O=C(Nc1cc(F)c(F)c(F)c1)c1ccc(F)c(SCC2(CCO)CC2)c1 [Compound 33, 4-Fluoro-3-(((1-(2-hydroxyethyl)cyclopropyl)methyl)thio)-N-(3,4,5-trifluorophenyl)benzamide]",< 10000 nM,620 nM
"O=C(Nc1ccc(F)c(Cl)c1)c1cccc(SC2CCCCC2)c1 [Compound 35, N-(3-Chloro-4-fluorophenyl)-3-(cyclohexylthio)benzamide]",< 10000 nM,1210 nM
"O=C(Nc1ccc(F)c(Cl)c1)c1cccc(SCCO)c1 [Compound 36, N-(3-Chloro-4-fluorophenyl)-3-((2-hydroxyethyl)thio)benzamide]",< 10000 nM,1340 nM
"O=C(Nc1ccc(F)c(Cl)c1)c1cccc(SC2CCCC2)c1 [Compound 37, N-(3-Chloro-4-fluorophenyl)-3-(cyclopentylthio)benzamide]",< 10000 nM,1070 nM
"CS(=O)(=O)NC(=O)[C@H]1CC[C@@H](Sc2cc(C(=O)Nc3cc(F)c(F)c(F)c3)ccc2F)CC1 [Compound 100, 4-Fluoro-3-(((1S,4S)-4-((methylsulfonyl)carbamoyl)cyclohexyl)thio)-N-(3,4,5-trifluorophenyl)benzamide]",< 10000 nM,1700 nM
"O=C(Nc1ccc(F)c(Cl)c1)c1cccc(NS(=O)(=O)C2CC2)n1 [Compound 123, N-(3-Chloro-4-fluorophenyl)-6-(cyclopropanesulfonamido)picolinamide]",< 10000 nM,3000 nM
"O=C(Nc1ccc(F)c(Cl)c1)c1ccnc(NS(=O)(=O)C2CC2)c1 [Compound 124, N-(3-Chloro-4-fluorophenyl)-2-(cyclopropanesulfonamido)isonicotinamide]",< 10000 nM,100 nM
"O=C(Nc1ccc(F)c(Cl)c1)c1cncc(NS(=O)(=O)C2CC2)c1 [Compound 125, N-(3-Chloro-4-fluorophenyl)-5-(cyclopropanesulfonamido)nicotinamide]",< 10000 nM,2100 nM
"CCc1ccc(CS(=O)(=O)Nc2cc(C(=O)Nc3ccc(F)c(Cl)c3)ccn2)cc1 [Compound 180, N-(3-Chloro-4-fluorophenyl)-2-((4-ethylphenyl)methylsulfonamido)isonicotinamide]",< 10000 nM,300 nM
"CCc1ccc(CS(=O)(=O)Nc2cc(C(=O)Nc3ccc(F)c(F)c3)ccn2)cc1 [Compound 181, N-(3,4-Difluorophenyl)-2-((4-ethylphenyl)methylsulfonamido)isonicotinamide]",< 10000 nM,700 nM
